# Measured values from ChEMBL document CHEMBL5150077, “Identification of TUL01101: A Novel Potent and Selective JAK1 Inhibitor for the Treatment of Rheumatoid Arthritis” (J Med Chem, 2022).
# Experiments:
# [1] = molecular target: Serine/threonine-protein kinase PAK 2 (Homo sapiens) (UniProt Q13177); test: Inhibition of human PAK2 assessed as residual activity at 30 uM relative to control
# [2] = molecular target: Glycogen synthase kinase-3 beta (Homo sapiens) (UniProt P49841); test: Inhibition of human GSK3beta assessed as residual activity at 30 uM relative to control
# Chain of Glycogen synthase kinase-3 beta (Homo sapiens) (P49841 whole entry, looked up): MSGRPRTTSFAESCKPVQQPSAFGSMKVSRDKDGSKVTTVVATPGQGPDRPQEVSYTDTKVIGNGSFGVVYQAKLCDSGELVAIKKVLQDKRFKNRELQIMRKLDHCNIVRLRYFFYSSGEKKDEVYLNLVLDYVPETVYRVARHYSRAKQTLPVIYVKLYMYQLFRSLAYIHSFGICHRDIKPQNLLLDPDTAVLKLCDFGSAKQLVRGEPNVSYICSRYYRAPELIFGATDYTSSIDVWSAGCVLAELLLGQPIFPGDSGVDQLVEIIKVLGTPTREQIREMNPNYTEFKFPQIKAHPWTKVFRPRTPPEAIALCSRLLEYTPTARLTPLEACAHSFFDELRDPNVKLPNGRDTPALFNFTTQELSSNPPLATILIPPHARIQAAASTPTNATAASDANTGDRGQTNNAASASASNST
# [3] = molecular target: Platelet-derived growth factor receptor alpha (Homo sapiens) (UniProt P16234); test: Inhibition of human PDGFRalpha assessed as residual activity at 30 uM relative to control
# [4] = Volume of distribution at steady state in beagle dog at 0.2 mg/kg, iv measured for 24 hrs by LC-MS/MS analysis; type: ADME, organism-based, Canis lupus familiaris; details: in vivo, read-out: Vdss
# [5] = molecular target: Hepatocyte growth factor receptor (Homo sapiens) (UniProt P08581); test: Inhibition of human MET assessed as residual activity at 30 uM relative to control
# Chain of Hepatocyte growth factor receptor (Homo sapiens) (P08581 whole entry): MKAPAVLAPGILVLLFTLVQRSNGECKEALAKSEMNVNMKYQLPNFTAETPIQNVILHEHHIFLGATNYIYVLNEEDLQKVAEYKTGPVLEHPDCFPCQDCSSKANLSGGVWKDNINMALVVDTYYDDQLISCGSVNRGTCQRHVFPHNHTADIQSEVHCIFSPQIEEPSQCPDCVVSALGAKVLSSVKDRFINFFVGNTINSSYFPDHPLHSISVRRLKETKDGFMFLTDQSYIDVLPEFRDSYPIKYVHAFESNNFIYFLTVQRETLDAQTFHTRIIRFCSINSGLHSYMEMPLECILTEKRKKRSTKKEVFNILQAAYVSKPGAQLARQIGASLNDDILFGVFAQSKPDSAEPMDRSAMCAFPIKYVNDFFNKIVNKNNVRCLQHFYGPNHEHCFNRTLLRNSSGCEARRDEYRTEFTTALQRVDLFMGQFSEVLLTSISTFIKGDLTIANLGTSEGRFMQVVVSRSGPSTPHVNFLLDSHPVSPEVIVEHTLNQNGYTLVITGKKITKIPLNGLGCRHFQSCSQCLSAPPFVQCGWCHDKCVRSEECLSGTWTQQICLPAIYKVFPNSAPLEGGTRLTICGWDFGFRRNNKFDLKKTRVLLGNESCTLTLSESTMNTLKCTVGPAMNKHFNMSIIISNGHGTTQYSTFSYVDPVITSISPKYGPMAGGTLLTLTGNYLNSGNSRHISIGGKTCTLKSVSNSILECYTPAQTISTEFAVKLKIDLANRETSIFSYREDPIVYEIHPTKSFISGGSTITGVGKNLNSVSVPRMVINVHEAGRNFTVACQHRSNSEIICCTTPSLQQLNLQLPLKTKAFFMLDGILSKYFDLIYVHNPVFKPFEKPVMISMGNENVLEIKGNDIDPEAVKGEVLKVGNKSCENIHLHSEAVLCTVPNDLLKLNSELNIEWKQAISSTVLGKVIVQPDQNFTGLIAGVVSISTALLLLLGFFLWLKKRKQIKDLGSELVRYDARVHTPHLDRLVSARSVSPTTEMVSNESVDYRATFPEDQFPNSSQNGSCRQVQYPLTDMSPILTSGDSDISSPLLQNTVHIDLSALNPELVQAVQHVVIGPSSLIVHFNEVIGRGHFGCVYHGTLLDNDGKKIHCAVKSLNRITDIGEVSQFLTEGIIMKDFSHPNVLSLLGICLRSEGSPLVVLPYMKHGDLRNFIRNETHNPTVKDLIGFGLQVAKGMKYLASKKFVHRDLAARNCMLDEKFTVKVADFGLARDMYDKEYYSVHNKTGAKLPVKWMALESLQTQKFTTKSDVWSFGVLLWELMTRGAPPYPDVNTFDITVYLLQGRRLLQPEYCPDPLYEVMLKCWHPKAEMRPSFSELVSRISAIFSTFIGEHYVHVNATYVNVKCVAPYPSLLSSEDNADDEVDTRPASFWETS
# [6] = molecular target: High affinity nerve growth factor receptor (Homo sapiens) (UniProt P04629); test: Inhibition of human TRK assessed as residual activity at 30 uM relative to control
# Chain of High affinity nerve growth factor receptor (Homo sapiens) (P04629 33-796 limits assumed): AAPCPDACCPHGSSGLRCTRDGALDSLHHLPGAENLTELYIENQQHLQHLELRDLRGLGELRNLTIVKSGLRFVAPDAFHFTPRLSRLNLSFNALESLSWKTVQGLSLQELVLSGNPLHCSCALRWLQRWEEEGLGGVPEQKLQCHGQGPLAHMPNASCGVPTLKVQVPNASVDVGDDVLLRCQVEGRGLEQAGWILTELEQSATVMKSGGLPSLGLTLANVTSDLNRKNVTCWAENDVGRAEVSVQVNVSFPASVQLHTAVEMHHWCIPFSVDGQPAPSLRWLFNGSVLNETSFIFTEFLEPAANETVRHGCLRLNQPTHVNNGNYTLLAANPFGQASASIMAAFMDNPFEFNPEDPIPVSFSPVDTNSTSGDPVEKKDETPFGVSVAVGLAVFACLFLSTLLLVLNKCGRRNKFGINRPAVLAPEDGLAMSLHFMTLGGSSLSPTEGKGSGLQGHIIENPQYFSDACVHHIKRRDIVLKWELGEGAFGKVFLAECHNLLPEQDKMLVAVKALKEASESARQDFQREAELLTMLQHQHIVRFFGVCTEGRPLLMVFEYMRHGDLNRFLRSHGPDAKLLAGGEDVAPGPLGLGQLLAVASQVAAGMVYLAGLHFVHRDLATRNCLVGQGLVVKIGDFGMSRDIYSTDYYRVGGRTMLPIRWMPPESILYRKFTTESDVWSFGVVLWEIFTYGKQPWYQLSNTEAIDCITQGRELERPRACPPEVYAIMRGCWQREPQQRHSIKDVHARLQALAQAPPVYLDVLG
# [7] = molecular target: Mitogen-activated protein kinase 8 (Homo sapiens) (UniProt P45983); test: Inhibition of human JNK1-alpha1 assessed as residual activity at 30 uM relative to control
# Chain of Mitogen-activated protein kinase 8 (Homo sapiens) (P45983 whole entry): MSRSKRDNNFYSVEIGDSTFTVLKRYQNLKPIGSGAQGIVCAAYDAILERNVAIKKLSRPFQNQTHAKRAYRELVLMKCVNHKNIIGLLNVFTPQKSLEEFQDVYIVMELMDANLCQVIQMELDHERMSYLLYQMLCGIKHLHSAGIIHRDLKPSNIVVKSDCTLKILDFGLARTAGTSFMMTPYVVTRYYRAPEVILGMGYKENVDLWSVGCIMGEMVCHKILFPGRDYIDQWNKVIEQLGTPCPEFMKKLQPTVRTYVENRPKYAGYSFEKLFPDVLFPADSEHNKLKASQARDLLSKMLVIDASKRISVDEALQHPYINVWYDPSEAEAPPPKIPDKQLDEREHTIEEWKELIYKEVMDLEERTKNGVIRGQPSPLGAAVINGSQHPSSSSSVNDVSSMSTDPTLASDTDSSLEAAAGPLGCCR
# [8] = Toxicity in rat assessed as reduction in body weight at 10 mg/kg/day, po administered via gavage once a day pretreated for 9 weeks prior to co-cage and measured on day 74 relative to control; type: organism-based; parameters: scale not given: the % may be the effect or the level left; details: in vivo, 1776 h, time 74 day
# [9] = molecular target: Mitogen-activated protein kinase 1 (Homo sapiens) (UniProt P28482); test: Inhibition of human MAPK1 assessed as residual activity at 30 uM relative to control
# Chain of Mitogen-activated protein kinase 1 (Homo sapiens) (P28482 whole entry): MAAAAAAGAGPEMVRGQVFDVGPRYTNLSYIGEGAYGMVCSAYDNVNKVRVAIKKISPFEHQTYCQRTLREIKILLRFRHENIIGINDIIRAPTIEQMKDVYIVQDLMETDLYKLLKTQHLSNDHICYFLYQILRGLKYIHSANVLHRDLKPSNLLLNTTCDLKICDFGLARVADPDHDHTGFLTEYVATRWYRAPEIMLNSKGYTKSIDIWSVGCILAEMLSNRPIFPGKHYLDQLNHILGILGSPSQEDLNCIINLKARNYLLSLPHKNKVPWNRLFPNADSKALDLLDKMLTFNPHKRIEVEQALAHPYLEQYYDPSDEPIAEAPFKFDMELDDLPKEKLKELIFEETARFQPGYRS
# [10] = molecular target: Inhibitor of nuclear factor kappa-B kinase subunit beta (Homo sapiens) (UniProt O14920); test: Inhibition of human IKKbeta assessed as residual activity at 30 uM relative to control
# Chain of Inhibitor of nuclear factor kappa-B kinase subunit beta (Homo sapiens) (O14920 whole entry): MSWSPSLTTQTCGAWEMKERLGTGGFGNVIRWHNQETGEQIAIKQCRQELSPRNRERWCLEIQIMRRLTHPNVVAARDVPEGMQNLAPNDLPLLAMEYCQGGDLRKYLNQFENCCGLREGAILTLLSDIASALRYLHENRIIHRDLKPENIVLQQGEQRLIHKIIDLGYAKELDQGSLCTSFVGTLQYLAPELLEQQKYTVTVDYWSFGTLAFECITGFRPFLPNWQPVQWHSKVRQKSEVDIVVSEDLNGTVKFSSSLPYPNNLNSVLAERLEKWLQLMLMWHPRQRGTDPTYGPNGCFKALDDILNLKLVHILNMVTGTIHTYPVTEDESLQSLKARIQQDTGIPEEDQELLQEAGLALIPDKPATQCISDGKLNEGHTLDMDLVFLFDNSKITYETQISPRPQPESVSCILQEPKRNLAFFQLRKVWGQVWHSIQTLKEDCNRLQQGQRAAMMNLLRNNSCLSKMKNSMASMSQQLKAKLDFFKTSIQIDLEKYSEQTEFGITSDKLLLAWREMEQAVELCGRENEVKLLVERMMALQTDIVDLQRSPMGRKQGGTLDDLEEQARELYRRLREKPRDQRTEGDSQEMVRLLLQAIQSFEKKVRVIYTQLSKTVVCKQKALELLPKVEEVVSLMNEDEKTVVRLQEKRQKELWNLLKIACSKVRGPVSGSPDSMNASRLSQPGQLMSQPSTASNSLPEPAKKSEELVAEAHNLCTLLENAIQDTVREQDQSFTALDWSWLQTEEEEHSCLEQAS
# [11] = molecular target: RAC-alpha serine/threonine-protein kinase (Homo sapiens) (UniProt P31749); test: Inhibition of human PKBalpha assessed as residual activity at 30 uM relative to control
# Chain of RAC-alpha serine/threonine-protein kinase (Homo sapiens) (P31749 whole entry): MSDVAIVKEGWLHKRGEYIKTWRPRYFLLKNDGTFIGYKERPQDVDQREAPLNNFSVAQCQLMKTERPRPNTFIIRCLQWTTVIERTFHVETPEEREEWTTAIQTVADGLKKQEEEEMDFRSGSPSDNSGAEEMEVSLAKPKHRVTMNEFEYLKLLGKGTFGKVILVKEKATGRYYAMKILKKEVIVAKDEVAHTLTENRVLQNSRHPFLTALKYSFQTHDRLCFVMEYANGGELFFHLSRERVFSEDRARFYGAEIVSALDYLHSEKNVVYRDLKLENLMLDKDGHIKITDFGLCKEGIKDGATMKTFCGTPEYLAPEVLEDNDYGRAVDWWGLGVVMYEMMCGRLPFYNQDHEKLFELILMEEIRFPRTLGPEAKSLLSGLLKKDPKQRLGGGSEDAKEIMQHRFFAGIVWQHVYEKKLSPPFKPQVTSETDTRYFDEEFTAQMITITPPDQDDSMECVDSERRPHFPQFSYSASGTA
# in vivo = details: beagle, dog, po, 5 mg/kg
# [12] = Toxicity in rat assessed as reduction in body weight at 10 mg/kg/day, po administered via gavage once a day pretreated for 9 weeks prior to co-cage and measured on day 84 relative to control; type: organism-based; parameters: scale not given: the % may be the effect or the level left; details: in vivo, 2016 h, time 84 day
# Homo sapiens = species: Homo sapiens; test: Inhibition of human CDK1/Cyclin B assessed as residual activity at 30 uM relative to control
# [13] = molecular target: Tyrosine-protein kinase ITK/TSK (Homo sapiens) (UniProt Q08881); test: Inhibition of human ITK assessed as residual activity at 30 uM relative to control
# Mus musculus = test: Antiarthritic activity in collagen-induced rheumatoid arthritis DBA/1 mouse model assessed as reduction in incidence rate at 15 mg/kg, po BID administered for 14 days starting from 7 days before immunization to 21 days after immunization and measured on day 34 post immunization; type: functional; parameters: scale not given: the % may be the effect or the level left; details: time 14 day
Compound,Activity [1] [%],Activity [2] [%],Activity [3] [%],Vd [4] [L/kg],Activity [5] [%],Activity [6] [%],Activity [7] [%],Activity [8] [%],Activity [9] [%],Activity [10] [%],Activity [11] [%],Cmax at 24 h (in vivo) [ng/mL],Activity [12] [%],Activity (Homo sapiens) [%],Activity [13] [%],Activity (Mus musculus) [%]
O=C(Nc1nc2cccc(C3CCC4(CC3)CN(C(=O)[C@@H]3CC3(F)F)C4)n2n1)C1CC1,93,93,102,3.23,90,89,109,4.99,104,97,104,2750,5.53,109,87,
O=C(Nc1nc2cccc(C3CCC4(CC3)CCN(C(=O)[C@@H]3CC3(F)F)CC4)n2n1)C1CC1,,,,,,,,,,,,,,,,88
